One test addresses human CB2 receptor (Homo sapiens, UniProt P34972). Briefly: biochemical. The format is binding. Details: purchased Perkin Elmer/NEN; host or cells: CHO cells, stably transfected (membranes). A digest of the protocol: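 Displacement of 0.8 nM [^3H]WIN 55212-2 from hCB2-transfected CHO membranes (25 μg protein) was measured in HEPES buffer pH 7.4 with MgCl2, EDTA and BSA, 40 min at 30 °C. Non-specific binding was defined with 10 μM CP 55940, then samples were filtered and β-counted. IC50 was extrapolated from log concentration vs % binding.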

For test [1], the system named is IL-1β secretion from activated RAW 264.7 macrophages. Briefly: Inhibition of IL-1β in LPS activated macrophages (ELISA). In kind it is cell-based. Particulars: Mus musculus. Here is the method: The technique used to quantify the amount of a given protein in a liquid sample, either tissue culture supernatant or body fluid, is based on Enzyme Linked ImmunoSorbent Assay (ELISA) methodology. Either commercially available or established in house, the assay is based on the capture of the protein of interest by specific antibodies bound to the bottom of an ELISA plate well. […] Again the unbound material is washed away, the samples are then incubated with the appropriate substrate yielding a calorimetric reaction. The reaction is stopped and reading is performed in a spectrophotometer at the appropriate wavelength. Samples are tested at least in duplicate and the appropriate standard curve, consisting of serial dilutions of the recombinant target protein, is incorporated on each plate. Concentration of the protein in the sample is calculated from the standard curve.
RAW 264.7 macrophages, a mouse cell line (ATCC # TIB-71), were grown in Dulbecco's modified Eagle's medium (DMEM) with 4 mM L-glutamine adjusted to contain 1.5 g/L sodium bicarbonate, 4.5 g/L glucose, and 10% heat inactivated fetal bovine serum. Cells were grown in tissue culture flasks and seeded at appropriate density into 24 wells tissue culture plates. 0.5×10^6 Raw cells in one milliliter were stimulated with 2 μg/ml Lipopolysaccharide E. coli 055:B5 (DIFCO Laboratories). The mouse macrophages were pre-treated for one hour with controls or 10 μM of bicyclic CB2 ligands and later on activated with LPS. Dexamethasone was used as a positive control at 50 nM. Supernatant was collected 4 hours (for PGE2) and 24 hours (for IL-1β and TNF-α) after activation, and the levels of the inflammatory agent under study were determined by ELISA, as previously described. Inhibition was calculated versus vehicle treated cells.

Another test addresses T1, human CB1 receptor (Homo sapiens, UniProt P21554).
T1 construct: purchased Perkin Elmer/NEN; host or cells: HEK-293 cells, stably transfected (membranes)
Briefly: biochemical. The format is binding. The settings on record: displacement of [3H]CP55940, hCB1 HEK-293 membranes; read-out: CB1 IC50. A digest of the protocol:
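Displacement of [3H]CP55940 from membranes of HEK-293 cells stably expressing human CB1, in 50 mM Tris-HCl, 2.5 mM EDTA, 5 mM MgCl2, 1 mg/ml BSA, pH 7.4, 0.1% DMSO; 1.5 h at 30° C, then filtration.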

Another test concerns Female Balb/c mice. The method, then: The purpose of this study is to test in vivo the anti-inflammatory activity of the compounds in paw edema induced by injection of 1% carrageenan in the animal hind paw. Female Balb/c mice (20 g average body weight, Harlan, Israel) are anesthetized with a combination of xylazine and pentobarbitone diluted in sterile saline, 15 and 6 mg/kg i.p. respectively. Anesthetized mice are injected subcutaneously, in the subplantar region of one (right) paw with 0.05 ml of 1% w/v Carrageenan in sterile water. […] The test compounds, including known anti-inflammatory controls, are dissolved in CREMOPHOR EL®:ethanol and further diluted 1:20 or 1:50 in sterile saline prior to i.p. injection that takes place immediately before the carrageenan injection. Three hours after injection the animals are resedated following the previously described procedure. Paw thickness is measured using a dial thickness gauge (Spring-dial, constant low pressure gauge, Mitutoyo, TG/L-1, 0.01 mm) and paw volume is measured using a plethysmometer (model #7150, Ugo Basile, Italy). Paw Edema is expressed as the difference between the right treated and the left untreated paws of the same animal, either as Δ Paw Volume (ΔPV) in millimeters cube or as Δ Paw Thickness (ΔPT) in millimeters. Each group comprises at least 10 animals. […] At the end of the study, animals are euthanized with an i.p. injection of 100 mg/kg pentobarbitone.
The differences among various treatment groups are analyzed by analysis of variance (ANOVA) followed by post-hoc Fisher test. A value of p<0.05 is considered to be statistically significant.
For sake of comparison, known anti-inflammatory drugs such as Celecoxib and Dexamethasone yield respectively in the range of relevant doses 7% and 26% reduction in paw thickness at 0.1 mg/kg, 16% and 31% at 0.25 mg/kg and 24% and 33% at 0.5 mg/kg. […] It should be kept in mind that these commercially available drugs display serious side effects that prevent chronic uses without complementary protective medication.

The test system of the next test is Adult female BALB/c mice. In kind it is in vivo, mouse. The settings on record: i.p. twice. Here is the method:
Adult female BALB/c mice (20 g average body weight, Harlan, Israel) were sensitized on day 0 and day 1 by application of 30 μl of 0.15% Dinitrofluorobenzene (DNFB) diluted in acetone on the shaved skin of the abdomen. On day 6 the animals were challenged by application of 10 μl of DNFB in acetone on one ear. The contralateral ear was not challenged but received the application of 10 μl acetone. Test compounds were administered at increasing doses from 0 to 15 mg/kg i.p. twice, the first injection was immediately after DNFB challenge (on day 6) and the second injection was 16 hours post challenge (on day 7). Each treatment group comprised at least 7 animals. Dexamethasone (DXM) was used as positive control. Ear thickness was determined (in 0.01 mm units) 24 hours after challenge (and 6 hours after second treatment on day 7) using a dial thickness gauge (Mitutoyo, Japan).
Results are analyzed as ear thickness of DNFB treated over DNFB untreated contralateral ear. The impact of the test compound was further assessed by comparing its mean impact on the animals of the treatment group to the response generated by the appropriate vehicle only.

In test [2] the test system is ICR male mice. Briefly: Development of tolerance on repeated administration, tail flick model. The settings on record: 5 mg/kg twice daily i.p. Here is the method: ICR male mice (20-30 g average body weight, Harlan, Israel) were injected i.p. at the volume dose of 5 ml/kg. Each treatment group contained at least 6 animals. Morphine HCl was used as positive control at the final dose of 5 mg/kg. Its vehicle, saline, was also included as control. The test compounds were dissolved in CREMOPHOR EL®:ethanol and diluted 1:20 in saline prior to injection, this second type of vehicle was also included as negative control. The final dose injected varied from 0.1 to 10 mg/kg. At predetermined time points after treatment injection, the animals were placed in the tail flick system (Socrel, model DS 20). Animals were gently held while their tails were located above the photoelectric cell. The tails were then illuminated (21V) at 2 cm from the distal tip and the latency time, measured in seconds, was recorded in duplicates. At the end of the study, the animals were euthanized by i.p. injection of 100 mg/kg sodium pentobarbitone.
Tolerance was assessed in the tail flick model above described. Briefly, the test compounds were administered twice daily i.p. for up to 10 days to groups of 10 animals each. The noxious pain threshold was measured as previously described in example 13 thirty minutes after the first drug administration on days 1, 4, 8 and 10. Results are expressed as mean latency time till the animal flicked its tail±SE. The differences between the latency times or the % of animals showing analgesia among various treatment groups was analyzed by analysis of variance (ANOVA) followed by post-hoc Tukey's test (for latency) or Fisher's exact test (for % animals). A value of p<0.05 is considered to be statistically significant.

The next test has as its system Male Sprague Dawley rats. Briefly: Inflammatory pain: carrageenan paw edema in rats, thermal and mechanical stimuli. Particulars: 5 mg/kg, three hours. The format is in vivo, rat. A digest of the protocol: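 Male Sprague Dawley rats (~200 g) with carrageenan-inflamed paw, tested before and 3 h after injection. Thermal withdrawal latency measured by Hargreaves plantar test at intensity 50, and mechanical threshold by dynamic plantar aesthesiometer. Values are inflamed minus non-inflamed paw differences at 0 and 3 h (ΔLT, ΔForce).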

Test [3] concerns ICR male mice. Briefly: Tail flick model for acute peripheral pain, i.p. In kind it is in vivo, mouse. Particulars: 5 mg/kg i.p. A digest of the protocol: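 Male ICR mice (≥6/group) dosed i.p. at 0.1–10 mg/kg in Cremophor EL:ethanol diluted 1:20 in saline; morphine HCl 5 mg/kg as positive control. Tail illuminated 2 cm from tip at set times post-dose; latency (s) recorded in duplicate. Read-outs: latency and % animals showing analgesia, mean±SE; ANOVA/Tukey or Fisher's exact test, p<0.05.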

Another test relates to male Sprague-Dawley rats. Briefly: Chronic constriction nerve injury, neuropathic pain (Von Frey filaments). The format is in vivo, rat. Particulars: 4 mg/kg i.p., 15 minutes. The text has this: The aim of this study was to assess the potential analgesic effects of the novel bicyclic CB2 binding compounds in an animal model of neuropathic pain. A peripheral monopathy was induced in the right hind limb of rats following a chronic constriction of the sciatic nerve (Bennet, G. J. & Xie, Y-K., Pain 33: 87-107, 1988). The development of mechanical allodyna was monitored using an established behavioral test (Von Frey filaments).
Pre-surgery baseline values were ascertained as the mean of 2 pre-surgery values. Once the baseline values had been established, the animals were surgically prepared by constricting the right sciatic nerve with 4 chromic cat gut loose ligatures.
The design was randomized, performed in a masked fashion as to whether drug or vehicle is being given. The animals, male Sprague-Dawley rats (average body weight 240-290 g), were allowed to acclimatize to the behavioral testing equipment prior to testing. On the testing day, the animals, at least six per treatment group, were given i.p. a single dose of one of the test compounds in a volume of 2.5 ml/kg. Fifteen minutes later, a series of Von Frey filaments (pre-calibrated prior to testing) were applied to the plantar surface of the hind paw, from below. The filaments were applied in ascending order starting with the weakest force and the withdrawal threshold for both the ipsilateral and contralateral hind paws was evaluated. Each filament was indented on the mid-plantar surface of the foot to the point where it just starts to bend; this is repeated approximately 8-10 times per filament at a frequency of approximately 1 Hz. The withdrawal threshold is defined as being the lowest force of two or more consecutive Von Frey's filaments to elicit a reflex withdrawal response (i.e. a brief paw flick) and is measured in grams.
The results are expressed as % increase in the threshold of response to Von Frey's filaments in the test compound treated group versus the vehicle treated animals and per definition the vehicle treated group yields a null baseline value. The black column represents the morphine treated animals (4 mg/kg), the gray and the dotted column bars represent two doses of compound A (0.5 and 1 mg/kg respectively).

This is an account of results in patent publication US20050020544A1, “Bicyclic CB2 cannabinoid receptor ligands” (priority 2002, published 2005).

Where two headings read alike, the source gives them in different places.

Sequence of human CB2 receptor (P34972 whole entry): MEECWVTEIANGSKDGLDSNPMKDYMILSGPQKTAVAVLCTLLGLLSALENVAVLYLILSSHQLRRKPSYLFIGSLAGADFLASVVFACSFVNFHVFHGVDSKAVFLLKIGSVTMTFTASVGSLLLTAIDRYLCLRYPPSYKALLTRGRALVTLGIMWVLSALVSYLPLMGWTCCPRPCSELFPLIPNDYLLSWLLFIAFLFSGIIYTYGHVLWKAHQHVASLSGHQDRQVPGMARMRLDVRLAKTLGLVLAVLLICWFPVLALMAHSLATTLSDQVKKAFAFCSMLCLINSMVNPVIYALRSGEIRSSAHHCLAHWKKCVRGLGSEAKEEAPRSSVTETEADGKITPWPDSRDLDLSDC
T1 sequence (P21554 whole entry): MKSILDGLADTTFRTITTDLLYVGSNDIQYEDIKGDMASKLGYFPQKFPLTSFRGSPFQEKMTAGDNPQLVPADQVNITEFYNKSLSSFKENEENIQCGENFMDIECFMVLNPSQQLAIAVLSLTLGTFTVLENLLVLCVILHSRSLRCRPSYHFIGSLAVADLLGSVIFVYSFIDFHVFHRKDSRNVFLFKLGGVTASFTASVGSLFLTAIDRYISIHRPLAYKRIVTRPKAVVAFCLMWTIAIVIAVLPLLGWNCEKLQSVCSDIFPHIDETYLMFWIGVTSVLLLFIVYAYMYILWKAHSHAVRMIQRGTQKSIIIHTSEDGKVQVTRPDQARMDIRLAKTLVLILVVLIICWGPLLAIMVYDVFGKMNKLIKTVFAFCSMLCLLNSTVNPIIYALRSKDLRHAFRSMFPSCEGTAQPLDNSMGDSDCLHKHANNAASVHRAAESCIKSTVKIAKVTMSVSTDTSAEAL

In the case of `CCCCCCC(C)(C)c1cc(O)c(C2CC(O)C3CC2C3(C)C)c(O)c1` (single isomer, unassigned; (-)) [Compound C, (−)-5-(1,1-Dimethyl-heptyl)-2-(4-hydroxy-6,6-dimethylbicyclo[3.1.1]hept-2-yl)-benzene-1,3-diol], on human CB2 receptor (IC50 CB1/IC50 CB2), the CB2/CB1 affinity ratio is on record as 9. Moreover, the 50% inhibitory concentration (IC50) came out at 0.0035 µM on human CB2 receptor (displacement of [3H]WIN 55212-2, hCB2 CHO membranes) and 0.031 µM on human CB1 receptor. The inhibition at 10 µM in [1] (RAW264.7, 24 h, read-out: inhibition of IL-1β secretion) was 26%.
`C[C@@H]1C[C@H]2[C@@H]3CCC4=CC(=O)C=C[C@]4(C)[C@@]3(F)[C@@H](O)C[C@]2(C)[C@@]1(O)C(=O)CO` [Dexamethasone, reference compound] came in with an inhibition at 0.05 µM in test [1] (RAW264.7, positive control at 50 nM, 24 hours after LPS activation) of 97%. Also, the “reduction in paw thickness” value with Female Balb/c mice (0.1 mg/kg) is given as 26%; with Female Balb/c mice (0.25 mg/kg) it was 31%; in the test on Female Balb/c mice (0.5 mg/kg), 33%. In addition, the “calculated IC50 reduction in ear thickness” value in the test on Adult female BALB/c mice is given as 3.2 mg/kg. In the test with Adult female BALB/c mice (doses 0 to 15 mg/kg, 24 hours after challenge), the “maximal inhibition (reduction in ear thickness)” value was “around 80%”.
Take `CN1CC[C@]23c4c5ccc(O)c4O[C@H]2[C@@H](O)C=C[C@H]3[C@H]1C5` [Morphine, reference compound]: the “% of animals showing increased analgesia” value is on record as 30% in the test on ICR male mice [2] (day 10) and 80% in the test on ICR male mice [2] (day one). Also, the latency time in the test on ICR male mice [2] (day 10) is 5.8 s; with ICR male mice [2] (day one) it was 7.5 s; in the test on ICR male mice [3] (30 minutes), 7.5 s; with ICR male mice [3] (90 minutes), 3.9 s; in the test on ICR male mice [3] (five and a half hour) it was 3.6 s; with ICR male mice [3] (two and a half hour) it was 3.1 s. Moreover, the “ΔForce (tactile stimulus)” value in the test on Male Sprague Dawley rats is recorded as 2.7 grams. For the same compound, the “ΔLT (thermal stimulus)” value in the test with Male Sprague Dawley rats is 0 s. Moreover, the “% animals showing analgesia” value in the test on ICR male mice [3] (90 minutes) is reported as “about 40%”. The “% animals showing increased analgesia” value is 17% in the test with ICR male mice [3] (five and an half hours); 88% with ICR male mice [3] (half-an hour). For the same compound, the “increase in pain threshold (Von Frey) versus vehicle, ipsilateral hind paw” value with male Sprague-Dawley rats is recorded as 91%.
